The source of these data is patent US9371519B2, “Complex type sugar chain hydrolase” (National Institute of Advanced Industrial Science and …, priority 2011, dated 2016).

The term Vmax denotes the top rate of the reaction or transport when substrate is in excess. The term Km denotes the substrate concentration at which the rate is half of its maximum.

For assay [1], the target named is T1, Mucor hiemalis endo-β-N-acetylglucosaminidase Endo-M (commercially available) (Mucor hiemalis, UniProt Q9C1S6).
T1 sequence (Q9C1S6 1-744): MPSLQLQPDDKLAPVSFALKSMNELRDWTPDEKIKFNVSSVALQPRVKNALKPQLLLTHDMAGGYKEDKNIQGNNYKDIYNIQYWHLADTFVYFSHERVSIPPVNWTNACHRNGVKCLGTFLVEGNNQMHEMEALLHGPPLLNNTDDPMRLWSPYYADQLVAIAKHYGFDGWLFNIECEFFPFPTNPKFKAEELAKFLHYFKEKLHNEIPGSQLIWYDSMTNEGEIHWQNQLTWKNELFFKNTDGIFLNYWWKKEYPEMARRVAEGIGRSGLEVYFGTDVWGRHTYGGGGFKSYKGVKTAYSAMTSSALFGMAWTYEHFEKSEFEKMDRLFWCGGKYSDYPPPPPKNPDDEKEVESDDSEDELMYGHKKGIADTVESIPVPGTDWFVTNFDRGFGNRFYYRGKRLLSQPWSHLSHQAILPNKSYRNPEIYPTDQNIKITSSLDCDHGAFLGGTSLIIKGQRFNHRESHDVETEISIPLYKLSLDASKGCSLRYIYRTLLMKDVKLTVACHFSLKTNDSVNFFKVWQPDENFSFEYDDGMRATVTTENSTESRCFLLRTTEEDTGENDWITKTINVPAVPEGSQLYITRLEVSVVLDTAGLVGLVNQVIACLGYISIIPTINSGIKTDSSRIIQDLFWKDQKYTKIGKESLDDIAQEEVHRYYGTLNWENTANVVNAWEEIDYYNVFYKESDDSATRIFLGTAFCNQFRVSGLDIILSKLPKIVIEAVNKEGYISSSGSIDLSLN
Kind of assay: Km and Vmax for NGA2-Asn-Fmoc hydrolysis, commercially available Endo-M (HPLC). It is filed as biochemical. The conditions noted are these: sodium acetate pH 6.0, 0.5 M NaCl, 50° C. The protocol:
The enzyme activity was measured as follows. A reaction solution (total volume: 10 μl) containing 100 mM of a sodium acetate buffer (pH 5.3) at the final concentration, 0.5 M NaCl, 10 μM of a Fmoc-labeled biantennary complex type sugar chain (NGA2-Asn-Fmoc), and an Endo-Om crude enzyme solution was incubated at 50° C. for 1 hour, and heated at 95° C. for 5 minutes, thereby stopping the enzyme reaction. The reaction solution was subjected to HPLC, and the enzymatic activity was calculated from the peak area ratio between the NGA2-Asn-Fmoc as the substrate and its hydrolysate. […] Isocratic elution was carried out at a flow rate of 1.0 ml/min, and the solvent B: 43%, and detection was carried out using a fluorescence detector (excitation wavelength 265 nm, and fluorescence wavelength 315 nm). […]
(§1) The properties of Endo-Om were studied using a purified enzyme solution. […] According to the method described in Example 4, the activity of the Endo-Om purified enzyme solution when the substrate concentration was 1 mM was measured, and the specific activity was calculated. In addition, activity measurement was carried out using NGA2-Asn-Fmoc at different concentrations as the substrates, and Km and Vmax were calculated. For comparison, the specific activity, Km, and Vmax of the commercially available Endo-M were calculated by the same method. […]

Assay [2] has as its target T2, Ogataea minuta endo-β-N-acetylglucosaminidase Endo-Om, wild type (recombinant, purified), SEQ ID NO: 1 (Ogataea minuta, UniProt R4WHQ8).
T2 sequence (R4WHQ8 1-772): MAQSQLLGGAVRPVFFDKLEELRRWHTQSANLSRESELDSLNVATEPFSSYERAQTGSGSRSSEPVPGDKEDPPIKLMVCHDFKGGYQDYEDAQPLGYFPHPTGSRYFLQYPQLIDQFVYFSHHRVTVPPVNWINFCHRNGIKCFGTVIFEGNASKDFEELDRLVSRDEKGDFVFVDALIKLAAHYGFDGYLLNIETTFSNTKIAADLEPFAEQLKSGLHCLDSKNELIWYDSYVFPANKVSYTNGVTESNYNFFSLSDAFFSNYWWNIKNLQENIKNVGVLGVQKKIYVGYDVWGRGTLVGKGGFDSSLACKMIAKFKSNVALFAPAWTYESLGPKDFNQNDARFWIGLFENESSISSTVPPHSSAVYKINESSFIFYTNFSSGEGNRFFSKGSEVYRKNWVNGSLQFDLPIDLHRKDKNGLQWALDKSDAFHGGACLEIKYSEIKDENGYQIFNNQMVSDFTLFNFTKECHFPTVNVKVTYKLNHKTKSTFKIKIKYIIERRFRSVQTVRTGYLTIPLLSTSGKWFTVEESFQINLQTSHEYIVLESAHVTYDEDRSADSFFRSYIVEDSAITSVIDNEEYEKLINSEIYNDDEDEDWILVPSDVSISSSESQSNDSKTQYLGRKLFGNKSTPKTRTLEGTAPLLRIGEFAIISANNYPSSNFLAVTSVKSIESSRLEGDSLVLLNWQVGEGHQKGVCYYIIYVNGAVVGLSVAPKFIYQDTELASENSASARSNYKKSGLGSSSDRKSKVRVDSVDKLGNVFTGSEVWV
Kind of assay: Km and Vmax for NGA2-Asn-Fmoc hydrolysis, purified Endo-Om (HPLC). It is filed as biochemical. How it is done: The enzyme activity was measured as follows. A reaction solution (total volume: 10 μl) containing 100 mM of a sodium acetate buffer (pH 5.3) at the final concentration, 0.5 M NaCl, 10 μM of a Fmoc-labeled biantennary complex type sugar chain (NGA2-Asn-Fmoc), and an Endo-Om crude enzyme solution was incubated at 50° C. for 1 hour, and heated at 95° C. for 5 minutes, thereby stopping the enzyme reaction. The reaction solution was subjected to HPLC, and the enzymatic activity was calculated from the peak area ratio between the NGA2-Asn-Fmoc as the substrate and its hydrolysate. The column was Asahipak NH2P-50 4E (4.6.250 mm, Shodex), and the solvents were acetonitrile (solvent A) and 200 mM of TEAA (pH 7.0, GLEN RESEARCH: solvent B). Isocratic elution was carried out at a flow rate of 1.0 ml/min, and the solvent B: 43%, and detection was carried out using a fluorescence detector (excitation wavelength 265 nm, and fluorescence wavelength 315 nm). The activity hydrolyzing […] of NGA2-Asn-Fmoc in 1 minute under the above-described reaction conditions was defined as 1 Unit of the enzymatic activity of Endo-Om.
as §1, with “solution. According to the method described in Example 4, the Endo-Om crude enzyme solution prepared from 100 ml culture was substituted with an equilibration buffer (20 mM sodium phosphate buffer (pH 7.4), 0.5 M NaCl, 0.5 mM PMSF, 50 mM imidazole) by dialysis.” for “solution.”

For `CC(=O)N[C@@H]1[C@@H](O)[C@H](O[C@@H]2O[C@H](CO)[C@@H](O[C@@H]3O[C@H](CO[C@H]4O[C@H](CO)[C@@H](O)[C@H](O)[C@@H]4O[C@@H]4O[C@H](CO)[C@@H](O)[C@H](O)[C@H]4NC(C)=O)[C@@H](O)[C@H](O[C@H]4O[C@H](CO)[C@@H](O)[C@H](O)[C@@H]4O[C@@H]4O[C@H](CO)[C@@H](O)[C@H](O)[C@H]4NC(C)=O)[C@@H]3O)[C@H](O)[C@H]2NC(C)=O)[C@@H](CO)O[C@H]1NC(=O)C[C@H](NC(=O)OCC1c2ccccc2-c2ccccc21)C(=O)O` [NGA2-Asn-Fmoc], the Vmax stood at 0.070 µmol/min/mg in assay [1]; 3.88 µmol/min/mg in assay [2] (Endo-Om, sodium acetate pH 5.3, 0.5 M NaCl, 50° C., unit as printed in b33 and b95). Further, the Km in assay [2] (Endo-Om, sodium acetate pH 5.3, 0.5 M NaCl, 50° C., NGA2-Asn-Fmoc at different concentrations) is 5.54 mM. For the same compound, the “Vmax of Endo-Om relative to Vmax of Endo-M” value in assay [2] (ratio Endo-Om / Endo-M) turned out to be 55 times.
